Data published in paper PMC9043826, “Dalpulapans A–E from the roots of Dalbergia stipulacea” (RSC Advances, 2021).

Columns and labels:
Assay type in all cases: cell-based
[1] = test system: Vero cells (kidney of African green monkey cells; normal cells); test: MTT cytotoxicity assay against Vero (normal) cells; details: Chlorocebus sabaeus
Description: (§1) All isolated compounds, except 12, were evaluated for cytotoxicity against A549 (lung cancer cells), HeLa (cervical cancer cells) and Vero cells using the MTT assay.
(§2) MTT (3-(4,5-dimethylthiazol-2-yl)-2,5-diphenyltetrazolium bromide) assay was performed to evaluate the cytotoxic effect of the compounds. The procedure has been explained in a previous report.[14] In brief, all cells were cultured in RPMI 1640 medium supplemented with 10% fetal bovine serum, penicillin (100 U mL^−1) and streptomycin (100 μg mL^−1) (Gibco-BRL, USA) and incubated at 37 °C in a humidified atmosphere of 5% CO2. For preliminary testing, cells were exposed to the selected compounds at a concentration of 100 μg mL^−1 for 24, 48 and 72 hours. […] Control groups were treated with a solvent (a mixture of DMSO and ethanol; 1 : 1). After incubation, the medium was replaced with 110 μL of fresh medium containing MTT (0.5 mg mL^−1 in PBS) (Sigma Chemical Co., St. Louis, MO, USA) and incubated for 2 h. […] The absorbance of formazan was measured with a microplate reader (Bio-Rad Laboratories, USA) at the wavelength of 550 nm using 655 nm as a reference wavelength. […] The percentage of viable cells which corresponds to the production of formazan was calculated as previously described (Kumnerdkhonkaen et al. 2018).% Cell viability = [sample (A550 − A655)/control (A550 − A655)] × 100

[2] = test system: HeLa (cervical cancer cells); test: MTT cytotoxicity assay against HeLa cells; details: Homo sapiens
Description: as §1, §2

A549 (lung cancer cells) = test: MTT cytotoxicity assay against A549 cells; details: Homo sapiens
Description: as §1, §2

## CC(C)=CCC/C(C)=C/Cc1c(O)ccc2c1OC[C@H]1c3cc4c(cc3O[C@@H]21)OCO4 [Compound 6, R,R-velucarpin A]
[1]
  IC50: 29.2 ± 1.16 µM
[2]
  IC50: 10.9 ± 0.42 µM
A549 (lung cancer cells)
  IC50: 14.6 ± 1.31 µM
